Measurements published in ChEMBL document CHEMBL1201862, “PubChem BioAssay data set” (2004).
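Following 48 hours of exposure in 96-well plates, responses at five concentrations were used to interpolate endpoints linearly. Abbreviation: GI50, concentration required for 50% inhibition of growth.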 Active and inactive are the calls of the source. Cut-off read from the data, not from the text of the source: active = GI50 up to about 1.1 µM and inactive = higher.

What was measured:
Experiment in all cases: DTP human tumour cell line panel, 48 h
NCI-H460 = tested on: NCI-H460
HOP-62 = tested on: HOP-62
Malme-3M = tested on: Malme-3M
A549 = tested on: A549
SK-MEL-2 = tested on: SK-MEL-2
BT-549 = tested on: BT-549
SK-MEL-5 = tested on: SK-MEL-5
HL-60 = tested on: HL-60
UO-31 = tested on: UO-31
HOP-92 = tested on: HOP-92
SF-295 = tested on: SF-295
K562 = tested on: K562
786-0 = tested on: 786-0
RXF 393 = tested on: RXF 393
SNB-19 = tested on: SNB-19
NCI-H522 = tested on: NCI-H522
SK-OV-3 = tested on: SK-OV-3
UACC-62 = tested on: UACC-62
CAKI-1 = tested on: CAKI-1

## NS(=O)(=O)c1ccc(NC(=O)Nc2cccc3ccccc23)cc1
NCI-H460
  GI50: 40.8 µM (inactive)
HOP-62
  GI50: 34.4 µM (inactive)
Malme-3M
  GI50: 35.7 µM (inactive)
A549
  GI50: 40.7 µM (inactive)
SK-MEL-2
  GI50: > 100 µM (inactive)
BT-549
  GI50: 87.1 µM (inactive)
SK-MEL-5
  GI50: > 100 µM (inactive)
HL-60
  GI50: > 100 µM (inactive)
UO-31
  GI50: 16.1 µM (inactive)
HOP-92
  GI50: 35.6 µM (inactive)
SF-295
  GI50: 35.6 µM (inactive)
K562
  GI50: > 100 µM (inactive)
786-0
  GI50: 19 µM (inactive)
RXF 393
  GI50: 30.5 µM (inactive)
SNB-19
  GI50: 21.1 µM (inactive)
NCI-H522
  GI50: 19.4 µM (inactive)
SK-OV-3
  GI50: 42.8 µM (inactive)
UACC-62
  GI50: 23.6 µM (inactive)
CAKI-1
  GI50: > 100 µM (inactive)

## Cc1cccc2c(=O)c3c(O)cc4c(c3n(C)c12)C=CC(C)(C)O4
NCI-H460
  GI50: 31.2 µM (inactive)
HOP-62
  GI50: > 100 µM (inactive)
Malme-3M
  GI50: > 100 µM (inactive)
A549
  GI50: 77.6 µM (inactive)
SK-MEL-2
  GI50: > 100 µM (inactive)
BT-549
  GI50: 23.1 µM (inactive)
SK-MEL-5
  GI50: 29.9 µM (inactive)
HL-60
  GI50: 45.7 µM (inactive)
HOP-92
  GI50: 21.6 µM (inactive)
SF-295
  GI50: 25.1 µM (inactive)
K562
  GI50: 11.2 µM (inactive)
786-0
  GI50: 71.8 µM (inactive)
RXF 393
  GI50: 5.93 µM (inactive)
SNB-19
  GI50: > 100 µM (inactive)
NCI-H522
  GI50: > 100 µM (inactive)
SK-OV-3
  GI50: > 100 µM (inactive)
UACC-62
  GI50: > 100 µM (inactive)
CAKI-1
  GI50: > 100 µM (inactive)

## C=C1[C@H](OCC(C)C)[C@@H](OC(=O)C(C)CC)[C@@H](O)C(C)(C)/C=C/[C@H](C)C(=O)[C@@]2(O)C[C@H](C)[C@H](O)[C@@H]2[C@H]1OC(=O)C(C)CC (some centres not stated)
NCI-H460
  GI50: 0.463 µM (active)
HOP-62
  GI50: 2.17 µM (inactive)
Malme-3M
  GI50: 6.62 µM (inactive)
A549
  GI50: 1.38 µM (inactive)
SK-MEL-2
  GI50: 4.99 µM (inactive)
BT-549
  GI50: 4.63 µM (inactive)
SK-MEL-5
  GI50: 2.23 µM (inactive)
HL-60
  GI50: 1.05 µM (active)
UO-31
  GI50: 0.499 µM (active)
HOP-92
  GI50: 1.79 µM (inactive)
SF-295
  GI50: 2.39 µM (inactive)
K562
  GI50: 0.991 µM (active)
786-0
  GI50: 4.1 µM (inactive)
RXF 393
  GI50: 6.14 µM (inactive)
SNB-19
  GI50: 14.5 µM (inactive)
NCI-H522
  GI50: 8.63 µM (inactive)
SK-OV-3
  GI50: 19.7 µM (inactive)
UACC-62
  GI50: 3.92 µM (inactive)
CAKI-1
  GI50: 3.32 µM (inactive)

## O=[N+]([O-])c1ccc2nc(=S)[nH]n2c1
NCI-H460
  GI50: > 100 µM (inactive)
HOP-62
  GI50: > 100 µM (inactive)
Malme-3M
  GI50: > 100 µM (inactive)
A549
  GI50: > 100 µM (inactive)
SK-MEL-2
  GI50: > 100 µM (inactive)
BT-549
  GI50: > 100 µM (inactive)
SK-MEL-5
  GI50: > 100 µM (inactive)
HL-60
  GI50: > 100 µM (inactive)
UO-31
  GI50: > 100 µM (inactive)
HOP-92
  GI50: > 100 µM (inactive)
SF-295
  GI50: > 100 µM (inactive)
K562
  GI50: > 100 µM (inactive)
786-0
  GI50: > 100 µM (inactive)
RXF 393
  GI50: > 100 µM (inactive)
SNB-19
  GI50: > 100 µM (inactive)
NCI-H522
  GI50: > 100 µM (inactive)
SK-OV-3
  GI50: > 100 µM (inactive)
UACC-62
  GI50: > 100 µM (inactive)
CAKI-1
  GI50: > 100 µM (inactive)

## N[C@H]1CCCC[C@@H]1N1C(=O)c2ccccc2C1(O)c1ccc(Cl)cc1 (some centres not stated)
NCI-H460
  GI50: 11.2 µM (inactive)
HOP-62
  GI50: 14.5 µM (inactive)
Malme-3M
  GI50: 14 µM (inactive)
A549
  GI50: 12.2 µM (inactive)
SK-MEL-2
  GI50: 15 µM (inactive)
BT-549
  GI50: 15 µM (inactive)
SK-MEL-5
  GI50: 10.5 µM (inactive)
HL-60
  GI50: 2.41 µM (inactive)
UO-31
  GI50: 11.6 µM (inactive)
HOP-92
  GI50: 10.3 µM (inactive)
SF-295
  GI50: 16 µM (inactive)
K562
  GI50: 3.19 µM (inactive)
786-0
  GI50: 12.6 µM (inactive)
RXF 393
  GI50: 6.07 µM (inactive)
SNB-19
  GI50: 14 µM (inactive)
NCI-H522
  GI50: 13.8 µM (inactive)
SK-OV-3
  GI50: 15.7 µM (inactive)
UACC-62
  GI50: 13 µM (inactive)
CAKI-1
  GI50: 4.4 µM (inactive)

## Cc1c(C)n(-c2ccccc2)c2nc([S+](C)[O-])nc([S+](C)[O-])c12 (configuration not stated)
NCI-H460
  GI50: 18.8 µM (inactive)
HOP-62
  GI50: 18.4 µM (inactive)
Malme-3M
  GI50: 1.98 µM (inactive)
A549
  GI50: 16.6 µM (inactive)
SK-MEL-2
  GI50: 4.68 µM (inactive)
BT-549
  GI50: 0.755 µM (active)
SK-MEL-5
  GI50: 2.35 µM (inactive)
HL-60
  GI50: 1.38 µM (inactive)
UO-31
  GI50: 7.74 µM (inactive)
HOP-92
  GI50: 1.96 µM (inactive)
SF-295
  GI50: 17.6 µM (inactive)
K562
  GI50: 2.09 µM (inactive)
786-0
  GI50: 2.56 µM (inactive)
RXF 393
  GI50: 2.92 µM (inactive)
SNB-19
  GI50: 17.1 µM (inactive)
NCI-H522
  GI50: 1.89 µM (inactive)
SK-OV-3
  GI50: 18.5 µM (inactive)
UACC-62
  GI50: 6.03 µM (inactive)
CAKI-1
  GI50: 1.34 µM (inactive)

## COc1cc2c(cc1OCCCCCOc1cc3c(cc1OC)C(=O)N1CCC[C@H]1CN3)N=C[C@@H]1CCCN1C2=O
NCI-H460
  GI50: 3.77 µM (inactive)
HOP-62
  GI50: 2.15 µM (inactive)
Malme-3M
  GI50: 5.93 µM (inactive)
A549
  GI50: 5.46 µM (inactive)
SK-MEL-2
  GI50: 3.27 µM (inactive)
BT-549
  GI50: 2.66 µM (inactive)
SK-MEL-5
  GI50: 2.79 µM (inactive)
HL-60
  GI50: 4.3 µM (inactive)
UO-31
  GI50: 12.3 µM (inactive)
HOP-92
  GI50: 17.2 µM (inactive)
SF-295
  GI50: 6.14 µM (inactive)
K562
  GI50: 3.49 µM (inactive)
786-0
  GI50: 3.94 µM (inactive)
RXF 393
  GI50: 17 µM (inactive)
SNB-19
  GI50: 20 µM (inactive)
NCI-H522
  GI50: 1.36 µM (inactive)
SK-OV-3
  GI50: 30.5 µM (inactive)
UACC-62
  GI50: 1.56 µM (inactive)
CAKI-1
  GI50: 9.48 µM (inactive)
